What was measured:
[1] = target: T1, recombinant calf intestinal alkaline phosphatase (b.IAP), expressed in CHO cells, SEQ ID NO: 10 (Bos taurus, UniProt P19111); experiment: Kinetic parameters (Km, Ki for L-Phe) of recombinant calf IAP; type: biochemical, calf (bovine); details: recombinant enzyme; read-out: K1 for L-Phe
T1 construct: codes for a peptide of 533 amino acids in length; made in house; host or cells: Chinese hamster ovary (CHO) cells, ATCC No. CCL61
Method: (§1) Values for Km and Kl for L-Phe were determined for the recombinant enzyme as well as for purified protein from calf intestine as described in Hummer and Millan, supra, and Wilkinson, Biochem. J. 8:324-332 (1961), incorporated herein by reference.

[2] = target: purified calf intestinal alkaline phosphatase (b.IAP) from natural sources (calf intestine); experiment: Kinetic parameters (Km, Ki for L-Phe) of purified natural calf IAP; type: biochemical, calf (bovine); details: purified natural enzyme; read-out: K1 for L-Phe
Method: as §1

T1 sequence (P19111 20-506 limits assumed): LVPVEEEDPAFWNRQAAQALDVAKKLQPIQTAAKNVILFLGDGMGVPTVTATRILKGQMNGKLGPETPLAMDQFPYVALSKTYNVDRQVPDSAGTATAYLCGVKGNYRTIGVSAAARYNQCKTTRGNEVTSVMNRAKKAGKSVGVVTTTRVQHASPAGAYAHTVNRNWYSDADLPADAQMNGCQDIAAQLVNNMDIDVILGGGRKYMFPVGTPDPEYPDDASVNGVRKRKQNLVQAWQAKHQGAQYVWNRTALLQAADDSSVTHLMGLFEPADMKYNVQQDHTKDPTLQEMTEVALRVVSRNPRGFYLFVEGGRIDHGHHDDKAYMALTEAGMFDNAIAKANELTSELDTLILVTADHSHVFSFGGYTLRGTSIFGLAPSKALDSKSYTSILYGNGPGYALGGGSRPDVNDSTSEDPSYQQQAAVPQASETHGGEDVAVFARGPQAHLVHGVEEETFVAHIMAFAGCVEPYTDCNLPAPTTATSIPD

Work on `N[C@@H](Cc1ccccc1)C(=O)O` [L-Phe] yielded a Ki [1] of 15.2 ± 1.8 mM and a Ki [2] of 11.2 ± 1 mM.
